From ChEMBL document CHEMBL3244064, “Conformational effects on the activity of drugs. 7. Synthesis and pharmacological properties of 2-(p-nitrophenyl)-substituted morpholines” (J Med Chem, 1979) come the findings set out here.

Calls of active or inactive are those of the source. The rule behind the calls is not given here.

Format in all cases: protein assay
For experiment [1], the target named is T1, Adrenergic receptor alpha (Rattus norvegicus) (UniProt P15823+P23944+P43140+P22086+P19328+P22909). Kind of experiment: Stimulation of alpha-adrenergic receptor in ICEM:CER SPF Caw rat vas deferens assessed as muscle contraction after 2 to 3 mins relative to norepinephrine.
For experiment [2], the target named is T1, Adrenergic receptor alpha (Rattus norvegicus). In words: Stimulation of alpha-adrenergic receptor in ICEM:CER SPF Caw rat vas deferens assessed as muscle contraction after 2 to 3 mins in presence of alpha-adrenoceptor blocker dihydroergotamine.
For experiment [3] the target is unchanged. In words: Stimulation of alpha-adrenergic receptor in ICEM:CER SPF Caw rat vas deferens assessed as muscle contraction after 2 to 3 mins relative to INPEA.
For experiment [4] the target is unchanged. In words: Stimulation of alpha-adrenergic receptor in ICEM:CER SPF Caw rat vas deferens assessed as potentiation of norepinephrine response at 50 uM after 2 to 3 mins.
Experiment [5] shares this target. In words: Stimulation of alpha-adrenergic receptor in reserpine-pretreated ICEM:CER SPF Caw rat vas deferens assessed as muscle contraction after 2 to 3 mins.

Turning to `CC(C)(C)N1CCOC(c2ccc([N+](=O)[O-])cc2)C1` (stereo not drawn), the figures for the Ratio in experiment [1] and in experiment [3] were 0.0029 and 0.64, respectively. Besides, the result in experiment [2] was inactive. In addition, the Activity in experiment [4] amounted to 169%.

As to `CC(C)(C)NCC(O)c1ccc([N+](=O)[O-])cc1` (stereo not drawn), the Ratio was determined as 0.0012 in experiment [1] and 0.27 in experiment [3]. Besides, the result in experiment [2] was inactive. In experiment [4], the Activity was 127%.

As to `CC(C)NCC(O)c1ccc([N+](=O)[O-])cc1` (stereo not drawn), the Ratio in experiment [1] turned out to be 0.0045. Further, the result in experiment [2] was inactive. For the same compound, in experiment [5], the result was Active. In addition, the Activity in experiment [4] is 209%.

As for `CC(C)N1CCOC(c2ccc([N+](=O)[O-])cc2)C1` (stereo not drawn), the figures for the Ratio in experiment [1] and in experiment [3] were 0.0045 and 1, respectively. Also, the outcome in experiment [2] was inactive. In addition, the result in experiment [5] was Active. Moreover, in experiment [4], the Activity was found to be 223%.

Regarding `NCC(O)c1ccc([N+](=O)[O-])cc1` (stereo not drawn), the Ratio in experiment [1] turned out to be 0.0075; in experiment [3], 1.66. Also, in experiment [2], the outcome was inactive. In addition, the Activity in experiment [4] was found to be 179%.

As to `O=[N+]([O-])c1ccc(C2CNCCO2)cc1` (stereo not drawn), the Ratio in experiment [1] amounted to 0.0063; in experiment [3] it was 1.4. The outcome in experiment [2] was inactive. Also, the Activity in experiment [4] is 203%.

`CNCC(O)c1ccc([N+](=O)[O-])cc1` (stereo not drawn): the Ratio came out at 0.0047 in experiment [1] and 1.04 in experiment [3]. Besides, the result in experiment [2] was inactive. The Activity in experiment [4] was 253%.

For `CN1CCOC(c2ccc([N+](=O)[O-])cc2)C1` (stereo not drawn), the results for the Ratio in experiment [1] and in experiment [3] were 0.0014 and 0.31, respectively. For the same compound, the outcome in experiment [2] was inactive. For the same compound, the Activity in experiment [4] turned out to be 192%.
